Active and inactive are the calls of the source. No cut-off for these calls is given here.
Key:
HeLa [1] = test: Photocytotoxicity against human HeLa cells assessed as reduction in cell viability irradiated with 640 +/- 15 nm red LED for 4 hrs measured after 24 hrs by MTT assay; assay type: functional, cell-based; details: light or radiation study
KYSE-70 cell line = test: Photocytotoxicity against human KYSE-70 cells assessed as reduction in cell viability irradiated with 640 +/- 15 nm red LED for 4 hrs measured after 24 hrs by MTT assay; assay type: functional, cell-based; details: KYSE-70, light or radiation study
A-375 [2] = test: Photocytotoxicity against human A-375 cells assessed as reduction in cell viability irradiated with 640 +/- 15 nm red LED for 4 hrs measured after 24 hrs by MTT assay; assay type: functional, cell-based; details: A-375, light or radiation study
A-375 [3] = test: Antiproliferative activity against human A-375 cells assessed as inhibition of cell proliferation irradiated with 640 +/- 15 nm red LED for 4 hrs in presence of 30 uM D-mannitol measured after 24 hrs under hypoxic condition by MTT assay; assay type: functional, cell-based
B16 [4] = test: Antiproliferative activity against mouse B16 cells assessed as inhibition of cell proliferation irradiated with 640 +/- 15 nm red LED for 4 hrs in presence of 30 uM D-mannitol measured after 24 hrs by MTT assay; assay type: functional, cell-based
[5] = Drug uptake in mouse B16 cells upto 2 hrs by flow cytometric analysis; assay type: ADME, cell-based; details: b16, 2 h
[6] = Drug uptake in human A-375 cells mitochondria incubated for 24 hrs by mito-tracker green based confocal microscopic method; assay type: ADME; details: a-375, 24 h
[7] = Drug uptake in mouse B16 cells mitochondria incubated for 24 hrs by mito-tracker green based confocal microscopic method; assay type: ADME; details: b16, 24 h
[8] = Drug uptake in mouse B16 cells lysosome after 24 hrs by Lyso-Tracker Red dye based confocal microscopic method; assay type: ADME, subcellular; details: b16, 24 h
A-375 [9] = test: Induction of intracellular reactive oxygen species production in human A-375 cells irradiated with 640 +/- 15 nm red LED for 1 hrs measured after 4 hrs by DCFH-DA probe based flow cytometry; assay type: functional, cell-based; details: dose nM <=300, time 4.0 hrs
B16 [10] = test: Induction of intracellular reactive oxygen species production in mouse B16 cells irradiated with 640 +/- 15 nm red LED for 1 hrs measured after 4 hrs by DCFH-DA probe based flow cytometry; assay type: functional, cell-based; details: dose nM <=400, time 4.0 hrs
A-375 [11] = test: Induction of morphological changes in human A-375 cells assessed as chromatin condensation at 100 to 300 nM incubated for 24 hrs by Hoechst 33258 staining based assay; assay type: functional, cell-based; details: dose 100-300 nM
A-375 [12] = test: Induction of mitochondrial membrane potential disruption in human A-375 cells assessed as reduction in red fluorescence upto 300 nM irradiated with 640 +/- 15 nm red LED for 1 hrs measured after 24 hrs by JC1 staining based fluorescence microscopy; assay type: functional, cell-based; details: dose nM <=300, time 24.0 hrs
B16 [13] = test: Induction of mitochondrial membrane potential disruption in mouse B16 cells assessed as reduction in red fluorescence upto 400 nM irradiated with 640 +/- 15 nm red LED for 1 hrs measured after 24 hrs by JC1 staining based fluorescence microscopy; assay type: functional, cell-based; details: dose nM <=400, time 24.0 hrs
A-375 [14] = test: Induction of apoptosis in human A-375 cells assessed as increase in Bad level at 100 to 300 nM irradiated with 640 +/- 15 nm red LED for 1 hrs measured after 24 hrs by Western blot analysis; assay type: functional, cell-based; details: dose 100-300 nM
A-375 [15] = test: Induction of apoptosis in human A-375 cells assessed as increase in Bax level at 100 to 300 nM irradiated with 640 +/- 15 nm red LED for 1 hrs measured after 24 hrs by Western blot analysis; assay type: functional, cell-based; details: dose 100-300 nM
B16 [16] = test: Induction of apoptosis in mouse B16 cells assessed as increase in Bax level at 200 to 400 nM irradiated with 640 +/- 15 nm red LED for 1 hrs measured after 24 hrs by Western blot analysis; assay type: functional, cell-based; details: dose 200-400 nM
A-375 [17] = test: Induction of apoptosis in human A-375 cells assessed as decrease in Bid level at 100 to 300 nM irradiated with 640 +/- 15 nm red LED for 1 hrs measured after 24 hrs by Western blot analysis; assay type: functional, cell-based; details: dose 100-300 nM
A-375 [18] = test: Induction of apoptosis in human A-375 cells assessed as decrease in Bcl2 level at 100 to 300 nM irradiated with 640 +/- 15 nm red LED for 1 hrs measured after 24 hrs by Western blot analysis; assay type: functional, cell-based; details: dose 100-300 nM
B16 [19] = test: Induction of apoptosis in mouse B16 cells assessed as decrease in Bcl2 level at 200 to 400 nM irradiated with 640 +/- 15 nm red LED for 1 hrs measured after 24 hrs by Western blot analysis; assay type: functional, cell-based; details: dose 200-400 nM
A-375 [20] = test: Induction of apoptosis in human A-375 cells assessed as increase in cytochrome c level at 100 to 300 nM irradiated with 640 +/- 15 nm red LED for 1 hrs measured after 24 hrs by Western blot analysis; assay type: functional, cell-based; details: dose 100-300 nM
[21] = Toxicity in BALB/c mouse xenografted with human A-375 cells assessed as body weight at 50 uM, IT once every 2 days for 2 weeks followed every dosing irradiated with 640 +/- 15 nm red LED for 4 hrs; details: in vivo, other, 336 h
B16 [22] = test: (§1) Antitumor activity against mouse B16 cells xenografted in C57BL/6J mouse assessed as reduction in tumor volume at high dose intratumorally once every 2 days for 2 weeks followed every dosing irradiated with 640 +/- 15 nm red LED for 4 hrs measured after 14 days treatment; assay type: functional, cell-based; details: time 14.0 day
[23] = Toxicity in C57BL/6 mouse model assessed as effect on heart treated intratumorally once every 2 days for 2 weeks followed every dosing irradiated with 640 +/- 15 nm red LED for 4 hrs measured upto 28 days by H and E staining dependent light microscopy based histopathological analysis; assay type: tissue-based; details: in vivo, other, time <=28 day
[24] = Toxicity in C57BL/6 mouse model assessed as effect on kidney treated intratumorally once every 2 days for 2 weeks followed every dosing irradiated with 640 +/- 15 nm red LED for 4 hrs measured upto 28 days by H and E staining dependent light microscopy based histopathological analysis; assay type: tissue-based; details: in vivo, other, time <=28 day
[25] = Toxicity in C57BL/6 mouse model assessed as effect on spleen treated intratumorally once every 2 days for 2 weeks followed every dosing irradiated with 640 +/- 15 nm red LED for 4 hrs measured upto 28 days by H and E staining dependent light microscopy based histopathological analysis; assay type: tissue-based; details: in vivo, other, time <=28 day
[26] = Toxicity in C57BL/6 mouse assessed as effect on creatine kinase level measured upto 14 days; details: in vivo, 336 h, time <=14 day
HeLa [27] = test: Photo-therapeutic index, ratio of LD50 for photocytotoxicity against human HeLa cells assessed as reduction in cell viability irradiated with 640 +/- 15 nm red LED for 4 hrs measured after 24 hrs by MTT assay to LD50 for cytotoxicity against human HeLa cells assessed as cell viability in dark measured after 24 hrs by MTT assay; assay type: functional
[28] = Drug uptake in mouse B16 cells incubated for 24 hrs in presence of 2-deoxyglucose and sodium azide by mito-tracker green based confocal microscopic method; assay type: ADME, cell-based; details: b16, 24 h
A-375 [29] = test: as §1, with “human A-375” for “mouse B16”, “BALB/c” for “C57BL/6J”, “as” for “as reduction in”, “growth inhibition by measuring nuclear pyknosis treated” for “volume”; assay type: functional, cell-based; details: time 14.0 day
A-375 [30] = test: as §1, with “human A-375” for “mouse B16”, “BALB/c” for “C57BL/6J”, “as” for “as reduction in”, “growth inhibition by measuring nuclear TUNEL-positive treated” for “volume”; assay type: functional, cell-based; details: time 14.0 day
B16 [31] = test: as §1, with “C57BL/6” for “C57BL/6J”, “as” for “as reduction in”, “growth inhibition by measuring nuclear pyknosis treated” for “volume”; assay type: functional, cell-based; details: time 14.0 day

For `CC(C)(C)C1=Cc2nc1ccc1[nH]c(cc1S(=O)(=O)NCCOCCO)c1nc(ccc3[nH]c2cc3C(C)(C)C)C(C(C)(C)C)=C1`, the DC50 (HeLa [1]) was 15 nM, the DC50 (KYSE-70 cell line) was 31 nM and the DC50 (A-375 [2]) was 192 nM. For the same molecule, the Activity (A-375 [3]) was “inactive”, the Activity (B16 [4]) was “inactive” and the Drug uptake [5] was “Active”. The Drug uptake [6] was “Active”, the Drug uptake [7] was “Active” and the Drug uptake [8] was “Active”. The Activity (A-375 [9]) was “Dose-dependent effect”, the Activity (B16 [10]) was “Dose-dependent effect” and the Activity (A-375 [11]) was “Active”. For the same molecule, the Activity (A-375 [12]) was “Active”, the Activity (B16 [13]) was “Active” and the Activity (A-375 [14]) was “Active”. The Activity (A-375 [15]) was “Active”, the Activity (B16 [16]) was “Active” and the Activity (A-375 [17]) was “Active”. The Activity (A-375 [18]) was “Active”, the Activity (B16 [19]) was “Active” and the Activity (A-375 [20]) was “Active”. For the same molecule, the Activity [21] was “Non-Toxic”, the Activity (B16 [22]) was “Active” and the Activity [23] was “Non-Toxic”. For the same molecule, the Activity [24] was “Non-Toxic”, the Activity [25] was “Non-Toxic” and the Activity [26] was “Non-Toxic”. The Ratio (HeLa [27]) was >2040, the Drug uptake [28] was “Not Active” and the Activity (A-375 [29]) was “Active”. For the same molecule, the Activity (A-375 [30]) was “Active” and the Activity (B16 [31]) was “Active”.
